In US4394388A, “Method for the control of cattle grubs employing m-phenoxybenzyl and .alpha ” (American Cyanamid Company, priority 1981, dated 1983):

Tested on: Cuterebra sp.
Assay: In vivo larvicidal activity against Cuterebra sp. in artificially infested mice (dermal dip)
Conditions: mice infested with 5 newly-hatched larvae, body dipped in emulsion 48 h later, larvae examined four days after treatment; for Dermal (mice) Dosage % LC50: concentration killing 50% of larvae; for Dermal (mice) Dosage % LC90: concentration killing 90% of larvae
Description: The larvidical activity of the compounds of the invention may be conveniently evaluated by a method accepted by the U.S. Agricultural Research Service, in which mice infected with Cuterebra spp. are treated topically with the compounds under evaluation.
White mice are artificially infested nasally, buccally, or ocularly with 5 newly-hatched larvae of Cuterebra sp. For dermal tests, 48 hours later a plastic collar is placed around the neck of each male mouse, and the portion of the body behind the collar is dipped in 200 ml of an emulsion of a test compound. A standard emulsifiable concentrate consists of 25 parts of test compound, 65 parts of xylene and 10 parts octylphenoxy polyethoxy ethanol of average molecular weight equal to 628 and having from 9 to 10 ethylene oxide units.
The skin of each mouse is examined carefully for encapsulated live larvae four days after treatment. Effectiveness of the treatments is determined by comparing numbers of larvae encapsulated in treated mice with numbers found in untreated control mice. Usually 3 mice/concentration are treated. if mice or the larvae are killed at the initial concentration of 1%, lower concentrations (0.6, 0.3, 0.2, 0.1%, etc.) are tested until there is no systemic activity or the mice survive.
Mortality data are subjected to log-prohibit analysis in order to determine dosages or concentrations that kill 50 or 90% of the larvae.

| Compound | Dermal (mice) Dosage % LC50 | Dermal (mice) Dosage % LC90 |
| --- | --- | --- |
| CC(C)C(C(=O)OC(C#N)c1cccc(Oc2ccccc2)c1)c1ccc(OC(F)F)cc1 (racemic) [(±)-α-cyano-m-phenoxybenzyl (+)-α-isopropyl-4-difluoromethox] [(±)-α-Cyano-m-phenoxybenzyl(+)-α-isopropyl 4-difluoromethoxyphenylacetate] | .0030% | .0056% |
| CC(C)C(C(=O)OC(C#N)c1cccc(Oc2ccccc2)c1)c1ccc(OC(F)F)cc1 (stereo not drawn) [α-cyano-m-phenoxybenzyl α-isopropyl-4-difluoromethoxyphenyla] [α-Cyano-m-phenoxybenzyl α-isopropyl-4-difluoromethoxyphenylacetate] | .0067% | .015% |
